Experimental data reported in PMC12154458, “High-Throughput Screens of Repurposing Hub and DOS Chemical Libraries Reveal Compounds with Novel and Potent Inhibitory Activity Against the Essential Non-Neuronal Acetylcholinesterase of Schistosoma mansoni (SmTAChE)” (International Journal of Molecular Sciences, 2025).
Read-outs that look alike come from different tables or passages of the source.

Key:
rSmTAChE [1] = molecular target: T1, rSmTAChE (Schistosoma mansoni, UniProt A0A3Q0KMM5); experiment: biochemical
rSmTAChE [2] = molecular target: T1, rSmTAChE; type: biochemical
[3] = molecular target: recombinant human acetylcholinesterase, rHsAChE (Homo sapiens, UniProt P22303); experiment: biochemical
[4] = test system: newly transformed S. mansoni schistosomula; details: survival over 3 days; read-out: IC50 against schistosomula; cited from earlier work
[5] = test system: S. mansoni adult male and female worms; details: survival over 3 days; read-out: IC50 against adults; cited from earlier work
S. mansoni worms in vivo = details: one time 200 mg/kg by oral gavage, four mice, 16–18 days post-drug administration; cited from earlier work
[6] = test system: human red blood cell AChE; details: cited from earlier work
[7] = read-out: HTS/rSmTAChE Inhibition (Ave, %)
[8] = read-out: rSmTAChE HTS Inhibition (Ave, %)
[9] = read-out: qAC50 (IC50), rSmTAChE
[10] = read-out: qAC50 (IC50), rHsAChE
[11] = dose response analysis of Drug Repurposing Hub hits against rHsAChE
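Wherever Inhibition (%) (Average) is given: mostly 20 µM final but a few compounds at 5 or 10 µM.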
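Wherever Inhibition (%) Replicate A is given: mostly 20 µM final but a few compounds at 5 or 10 µM.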
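Wherever Inhibition (%) Replicate B is given: mostly 20 µM final but a few compounds at 5 or 10 µM.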

recombinant human acetylcholinesterase, rHsAChE, sequence (P22303 32-614): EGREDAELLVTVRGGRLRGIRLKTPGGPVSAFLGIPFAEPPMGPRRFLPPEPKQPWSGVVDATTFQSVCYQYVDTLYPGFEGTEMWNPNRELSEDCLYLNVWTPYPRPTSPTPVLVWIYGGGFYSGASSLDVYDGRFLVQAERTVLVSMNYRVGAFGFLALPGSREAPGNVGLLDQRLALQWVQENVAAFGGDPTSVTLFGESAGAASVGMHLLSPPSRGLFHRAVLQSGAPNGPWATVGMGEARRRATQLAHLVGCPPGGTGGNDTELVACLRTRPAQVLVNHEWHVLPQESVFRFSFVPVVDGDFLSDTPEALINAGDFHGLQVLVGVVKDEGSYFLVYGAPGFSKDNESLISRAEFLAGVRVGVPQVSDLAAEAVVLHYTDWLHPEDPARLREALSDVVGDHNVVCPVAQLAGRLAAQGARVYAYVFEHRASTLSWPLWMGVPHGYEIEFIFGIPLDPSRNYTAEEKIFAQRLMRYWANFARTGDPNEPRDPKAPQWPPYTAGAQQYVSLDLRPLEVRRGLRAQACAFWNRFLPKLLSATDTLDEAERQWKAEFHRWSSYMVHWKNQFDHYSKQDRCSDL
T1 sequence (A0A3Q0KMM5 27-661 limits assumed): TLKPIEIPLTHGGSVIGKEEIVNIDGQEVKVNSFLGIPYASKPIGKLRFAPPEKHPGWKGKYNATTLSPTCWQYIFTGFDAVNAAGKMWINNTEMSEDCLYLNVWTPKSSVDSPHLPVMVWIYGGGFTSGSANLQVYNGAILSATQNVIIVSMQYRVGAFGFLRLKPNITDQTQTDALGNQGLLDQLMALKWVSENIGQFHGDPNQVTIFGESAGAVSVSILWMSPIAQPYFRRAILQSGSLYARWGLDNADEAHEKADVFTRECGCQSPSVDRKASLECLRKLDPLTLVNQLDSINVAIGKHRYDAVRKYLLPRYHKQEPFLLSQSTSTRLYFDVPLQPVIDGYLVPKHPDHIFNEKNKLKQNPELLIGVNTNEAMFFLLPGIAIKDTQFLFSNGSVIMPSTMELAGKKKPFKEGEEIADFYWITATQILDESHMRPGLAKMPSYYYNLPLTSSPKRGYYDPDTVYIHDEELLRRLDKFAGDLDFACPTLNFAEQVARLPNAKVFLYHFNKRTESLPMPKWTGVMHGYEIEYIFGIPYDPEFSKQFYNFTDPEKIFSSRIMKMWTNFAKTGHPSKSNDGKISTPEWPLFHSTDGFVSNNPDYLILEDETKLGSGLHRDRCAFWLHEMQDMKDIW

Row | Structure (SMILES) | Inhibition (%) (Average) (rSmTAChE [1]) | Inhibition (%) Replicate A (rSmTAChE [1]) [%] | Inhibition (%) Replicate B (rSmTAChE [1]) [%] | Data Mode (curve class), rSmTAChE (rSmTAChE [2]) | Data Mode (curve class), rHsAChE [3] | IC50 [3, 10] [µM] | other results
1 | Nc1nc(NCC2CCC(CNS(=O)(=O)c3cccc4ccccc34)CC2)nc2ccccc12 (stereo not drawn) [CGP-71683, reference compound] | 61.37 | 61.71 | 61.03 | decreasing | decreasing (weakly active) |  | HTS/rSmTAChE Inhibition (Ave, %) (rSmTAChE [1]; 5 µM): 61.37%; SI (Hs/Sm) (rSmTAChE [2]): 8.82; fold greater potency/selectivity for SmTAChE vs. HsAChE (Selectivity Index) (rSmTAChE [2]): about 10 fold; IC50 (rSmTAChE [2]; read-out: IC50 (µM) rSmTAChE): 2.21 µM; IC50 ([3]; read-out: IC50 (µM) rHsAChE): > 19.5 µM; IC50 [4]: ~1 µM; IC50 [5]: ~2 µM; worm burden compared to the controls (S. mansoni worms in vivo): no differences in worm burden
2 | COc1cc(NC(C)CCCN)c2ncccc2c1 (stereo not drawn) [Primaquine phosphate, reference compound] |  |  |  | decreasing | decreasing (weakly active) |  | inhibition at 20 µM (rSmTAChE [1]; [7]): 73.7%; SI (Hs/Sm) (rSmTAChE [2]): 2.21; IC33 human red blood cell AChE [6]: 38 µM; IC67 human red blood cell AChE [6]: 247 µM
3 | CC1CCCCOC(CN(C)C(=O)Nc2cccc3ccccc23)C(C)CN(C(C)CO)C(=O)c2cc(N(C)C)ccc2O1 (stereo not drawn) [BRD-K85440939-001-01-5] |  |  |  |  |  |  | inhibition at 20 µM (rSmTAChE [1]; [8]): 63.9%; rSmTAChE Data Mode (rSmTAChE [2]): decreasing; IC50 (µM) rHsAChE ([3]; Table 2, DOS-A library, Inactive = inactive at the maximum tested concentration (40 µM)): Inactive *
4 | CC(C)=CCC/C(C)=C/CC/C(C)=C/CSc1ccccc1C(=O)O [BRD-K98453471-001-01-7] | 76.52 | 77.70 | 75.33 | decreasing | decreasing | 13.7 | IC50 (rSmTAChE [2]; [9]): 11.6 µM
5 | C[C@]12CC[C@@H]3c4ccc(O)cc4CC[C@H]3[C@@H]1CCC2=O [BRD-K81839095-001-25-1] | 94.45 | 91.12 | 97.78 | inactive | inactive |  | 
6 | O=C(C[C@H]1C[C@H]2c3cc(NC(=O)Nc4ccc(C(F)(F)F)cc4)ccc3O[C@H]2[C@H](CO)O1)NC1CCCCC1 [BRD-K50094564-001-01-3] | 69.15 | 68.27 | 70.03 |  |  |  | rSmTAChE Data Mode (rSmTAChE [2]): decreasing (weakly active); rHsAChE Data Mode [3]: inactive
7 | CCCCc1oc2ccccc2c1C(=O)c1cc(I)c(OCCN(CC)CC)c(I)c1 [BRD-K17561142-003-35-8] | 69.46 | 66.24 | 72.67 | decreasing (weakly active) | decreasing (weakly active) | > 38 | IC50 (rSmTAChE [2]; [9]): > 38 µM
8 | CN(C)C(=O)Oc1cccc([N+](C)(C)C)c1 [Neostigmine bromide, reference compound] |  |  |  | decreasing | decreasing |  | inhibition at 20 µM (rSmTAChE [1]; [8]): 88.1%
9 | COCCOc1ccc2c(c1)ncn2-c1ccc2cccc(N3CCC(N)CC3)c2n1 [BRD-K43621685-001-03-3] | 79.32 | 80.31 | 78.32 | decreasing (weakly active) | decreasing | 20.7 | IC50 (rSmTAChE [2]; [9]): > 38 µM
10 | CN(C)C(=O)Oc1ccc[n+](C)c1 [Pyridostigmine bromide, reference compound] |  |  |  | decreasing | decreasing (super-active) |  | inhibition at 20 µM (rSmTAChE [1]; [8]): 92.4%
11 | C=CCNc1nc(NCC=C)nc(N2CCN(C(c3ccc(F)cc3)c3ccc(F)cc3)CC2)n1 [BRD-K82677201-001-01-6] | 71.59 | 72.90 | 70.28 | decreasing (weakly active) | decreasing (weakly active) | > 38 | IC50 (rSmTAChE [2]; [9]): > 38 µM
12 | CCCC(=O)Nc1ccc2c(c1)OC[C@@H](C)N(Cc1cc(-c3ccccc3)on1)C[C@@H](C)[C@H](OC)CN(C)C2=O [BRD-K35965314-001-01-7] | 67.01 | 68.51 | 65.51 |  |  |  | rSmTAChE Data Mode (rSmTAChE [2]): inactive; rHsAChE Data Mode [3]: inactive
13 | C[C@H](CO)N1C[C@H](C)[C@H](CN(C)CC2CC2)OCc2ccccc2-c2c(n(C)c3ccccc23)C1=O [BRD-K90625171-001-01-1] | 64.57 | 64.87 | 64.27 |  |  |  | rSmTAChE Data Mode (rSmTAChE [2]): decreasing (weakly active); rHsAChE Data Mode [3]: inactive
14 | CN(CCCCCCCCCCN(C)C(=O)Oc1cccc([N+](C)(C)C)c1)C(=O)Oc1cccc([N+](C)(C)C)c1 [Demecarium bromide, reference compound] |  |  |  | decreasing | decreasing |  | inhibition at 20 µM (rSmTAChE [1]; [8]): 65.3%; IC50 ([3]; IC50 (µM) rHsAChE): 0.02 µM; IC50 ([3]; qAC50 (IC50), rHsAChE): 0.0225 µM
15 | O=C(C[C@H]1C=C[C@H](NC(=O)c2ccncc2)[C@@H](CO)O1)Nc1ccc(-c2ccccc2)cc1 [BRD-K04695993-001-01-5] | 82.34 | 77.66 | 87.01 |  |  |  | rSmTAChE Data Mode (rSmTAChE [2]): inactive; rHsAChE Data Mode [3]: inactive
16 | Clc1ccc(CSC(Cn2ccnc2)c2ccc(Cl)cc2Cl)cc1 (stereo not drawn) [BRD-A70649075-008-30-8] | 65.58 | 67.22 | 63.95 | decreasing (weakly active) | decreasing (weakly active) | > 38 | IC50 (rSmTAChE [2]; [9]): > 38 µM
17 | CC(C)(C)c1ccc(CN2CCN(C(c3ccccc3)c3ccc(Cl)cc3)CC2)cc1 (stereo not drawn) [BRD-A91444184-300-01-9] | 84.37 | 84.75 | 83.99 | inactive | inactive |  | 
18 | CCCCC(=O)O[C@H]1CC[C@H]2[C@@H]3CCc4cc(O)ccc4[C@H]3CC[C@]12C [BRD-K66766661-001-19-2] | 77.12 | 78.67 | 75.58 | inactive | decreasing | 29.4 | 
19 | COc1ccc(-c2ccc3ncc4c(c3c2)n(-c2ccc(N3CCNCC3)c(C(F)(F)F)c2)c(=O)n4C)cn1 [NVP-BGT226, reference compound] |  |  |  | decreasing (weakly active) |  |  | inhibition at 10 µM (rSmTAChE [1]; [8]): 84.3%; SI (Sm/Hs) [3]: 2.81; IC50 ([3]; Table 3, read-out: IC50 (µM) rHsAChE): > 13.5 µM; Data Mode (curve class), rHsAChE [3, 11]: decreasing (weakly active)
20 | COC(=O)[C@]12CCC(C)(C)C[C@@H]1[C@@H]1C(=O)C=C3[C@]4(C)C=C(C#N)C(=O)C(C)(C)[C@@H]4CC[C@@]3(C)[C@]1(C)CC2 [BRD-K69694239-001-02-2] | 75.78 | 75.16 | 76.41 | decreasing | decreasing (weakly active) | > 38 | IC50 (rSmTAChE [2]; [9]): 34.7 µM
21 | C[C@]12CCC3c4ccc(O)cc4CCC3C1CC[C@@H]2OC(=O)CCC1CCCC1 (stereo partly drawn) [BRD-A91452556-001-04-0] | 88.63 | 90.28 | 86.98 | inactive | decreasing (weakly active) | > 38 | 
22 | Cc1cn2nc([C@@H]3CCCCN3C(=O)c3cc(Cl)ccc3NS(C)(=O)=O)cc2nc1N1CC[C@H](N)C1 [Presatovir, reference compound] |  |  |  | decreasing |  |  | inhibition at 20 µM (rSmTAChE [1]; [7]): 66.9%; Data Mode (curve class), rHsAChE [3, 11]: decreasing (weakly active)
23 | C[C@H](Cc1ccc(O)c(O)c1)[C@@H](C)Cc1ccc(O)c(O)c1 [Masoprocol, reference compound] |  |  |  | decreasing |  |  | inhibition at 20 µM (rSmTAChE [1]; [7]): 76.4%; SI (Hs/Sm) (rSmTAChE [2]): 2.32; Data Mode (curve class), rHsAChE [3, 11]: decreasing (weakly active)
